Article PMC6691587, “New CXCR1/CXCR2 inhibitors represent an effective treatment for kidney or head and neck cancers sensitive or refractory to reference treatments” (Theranostics, 2019)
Read-outs that look alike come from different tables or passages of the source.

Legend:
[1] = tested on: 786-O cells; assay: Ectopic model of RCC (786-O xenograft); assay type: in vivo, nude (nu/nu) female mice; settings: C29 100 µg i.p. three per week; danirixin 200 µg three times a week; sunitinib 50 mg/kg oral gavage five times a week
Experimental: These studies were carried out in strict accordance with the recommendations in the Guide for the Care and Use of Laboratory Animals. Our experiments were approved by the ''Comité National Institutionnel d'Ethique pour l'Animal de Laboratoire'' (reference: PEA-255 and PEA-277). Cells were injected subcutaneously into the flank of 5-week-old nude (nu/nu) female mice (Janvier). When the tumor reached 100 mm^3, mice were treated. The tumor volume was determined with a caliper (v = L*l2*0.5).
2- Seven million 786-O cells were injected subcutaneously.

[2] = tested on: HuVEC; assay: Boyden chamber migration assay; assay type: cell-based, human; settings: CXCL7 50 ng/ml, 2.5 µmol/L compound
Experimental: CXCL7 or VEGFA-stimulated chemotaxis assays were monitored using modified Boyden chambers containing polycarbonate membranes (8-μm pores, Transwell; Corning, Sigma). Cells were seeded onto the upper side of the filters and chambers were placed on 24-well plates containing CXCL7 (50ng/ml) or VEGFA (50ng/ml). Cell migration was followed for 24 h at 37°C in 5% CO2. Migratory cells on the lower membrane surface were fixed in 3% paraformaldehyde, stained with 0.1% crystal violet.

[3] = tested on: OCI-AML2; assay: XTT cell viability assay, OCI-AML2 AML cells; assay type: cell-based, human; settings: SD 10%, mean of three experiments, read-out: IC50 L2 (AML)
Experimental: (§1) Fifty microliters of sodium 3′-[1-phenylaminocarbonyl)-3,4-tetrazolium]-bis(4-methoxy-6-nitro) benzene sulfonic acid hydrate (XTT) reagent was added to each well. The assay is based on the cleavage of the yellow tetrazolium salt XTT to form an orange formazan dye by metabolically active cells. This bio-reduction occurs in viable cells only and is related to NAD(P)H production through glycolysis. Therefore, the amount of formazan dye measured at 490 nm directly correlated with the number of metabolically active cells reflecting cell proliferation and viability. Each assay was performed in quadruplicate.

[4] = tested on: MDA-MD-231; assay: XTT cell viability assay, breast cancer cells; assay type: cell-based, human; settings: 48 h, SD 10%, mean of three experiments
Experimental: as §1

[5] = tested on: OCI-AML3; assay: XTT cell viability assay, OCI-AML3 AML cells; assay type: cell-based, human; settings: SD 10%, mean of three experiments, read-out: IC50 L3 (AML)
Experimental: as §1

[6] = tested on: SKM1; assay: XTT cell viability assay, SKM1 MDS cells; assay type: cell-based, human; settings: SD 10%, mean of three experiments, read-out: IC50 SK (MDS)
Experimental: as §1

[7] = tested on: 786-O; assay: XTT cell viability assay, 786-O RCC cells; assay type: cell-based, human; settings: XTT assay, 48 h, SD 10%, mean of three experiments, read-out: IC50 786 (Kidney RCC)
Experimental: as §1

[8] = tested on: A498; assay: XTT cell viability assay, A498 RCC cells; assay type: cell-based, human; settings: XTT assay, 48 h, SD 10%, mean of three experiments, read-out: IC50 498 (Kidney RCC)
Experimental: as §1

[9] = tested on: Molm14; assay: XTT cell viability assay, Molm14 AML cells; assay type: cell-based, human; settings: SD 10%, mean of three experiments
Experimental: as §1

[10] = tested on: K562; assay: XTT cell viability assay, K562 CML cells; assay type: cell-based, human; settings: SD 10%, mean of three experiments
Experimental: as §1

[11] = tested on: RCC4; assay: XTT cell viability assay, RCC4 RCC cells; assay type: cell-based, human; settings: SD 10%, mean of three experiments, read-out: IC50 R4 (Kidney RCC)
Experimental: as §1

[12] = tested on: CAL33; assay: XTT cell viability assay, CAL33 HNSCC cells; assay type: cell-based, human; settings: XTT assay, 48 h, SD 10%, mean of three experiments, read-out: IC50 33 (HNSCC)
Experimental: as §1

[13] = tested on: Molm13; assay: XTT cell viability assay, Molm13 AML cells; assay type: cell-based, human; settings: SD 10%, mean of three experiments
Experimental: as §1

[14] = tested on: CAL27; assay: XTT cell viability assay, CAL27 HNSCC cells; assay type: cell-based, human; settings: XTT assay, 48 h, SD 10%, mean of three experiments, read-out: IC50 27 (HNSCC)
Experimental: as §1

[15] = tested on: panel of human tumor cell lines; assay: XTT screening on a panel of tumor cell lines; assay type: cell-based; settings: for anti-proliferation/survival activity on malignant cells: in words; for IC50: Homo sapiens
Experimental: as §1

[16] = read-out: IC50 values for several cancer cell lines
[17] = read-out: IC50 for solid tumors (breast and kidney)

| SMILES | IC50 ([3]; Homo sapiens, OCI-AML2, 48 h) | IC50 ([4]; Homo sapiens) | IC50 ([5]; Homo sapiens, OCI-AML-3, 48 h) | IC50 ([6]; Homo sapiens, SKM-1, 48 h) | IC50 ([7]; Homo sapiens, 786-0) | IC50 ([9]; Homo sapiens, MOLM-14, 48 h) | IC50 ([10]; Homo sapiens, K562, 48 h) | IC50 ([13]; Homo sapiens, MOLM-13, 48 h) | IC50 ([8]; Homo sapiens, A498) | IC50 ([11]; Homo sapiens, RCC4, 48 h) | IC50 ([12]; Homo sapiens, CAL-33) | IC50 ([14]; Homo sapiens, CAL-27) | other results |
| --- | --- | --- | --- | --- | --- | --- | --- | --- | --- | --- | --- | --- | --- |
| Cc1c(F)cccc1NC(=O)Nc1ccc(Cl)c(S(=O)(=O)[C@H]2CCCNC2)c1O [danirixin, reference compound] | – | – | – | – | – | – | – | – | – | – | – | – | efficacy on tumor growth, 786-O xenograft [1]: equivalent efficacy; CXCL7-dependent migration of HuVECs [2]: no effect |
| O=C(Nc1ccc([N+](=O)[O-])cc1O)Nc1ccccc1Br [SB225002, reference compound] | – | – | – | – | – | – | – | – | – | – | – | – | IC50 ([3]; 48 h): > 100 µM; IC50 [4]: 100 µM; IC50 ([5]; 48 h): 90 µM; IC50 ([6]; 48 h): > 100 µM; IC50 [7]: 100 µM; IC50 [8]: 70 µM; IC50 ([9]; 48 h, read-out: IC50 14 (AML)): 90 µM; IC50 ([10]; 48 h): > 100 µM; IC50 ([11]; 48 h): 100 µM; IC50 [12]: 80 µM; IC50 ([13]; 48 h, read-out: IC50 13 (AML)): > 100 µM; IC50 [14]: 100 µM; effect on RCC and HNSCC cells ([15]; 786, 786R, CAL27, CAL27R (Figure S7), compared to C29): modest effect |
| CCOc1ccc2nc(NC(=O)Nc3ccccc3C)sc2c1 [C30] | 15 µM | 12 µM | 7 µM | 15 µM | 15 µM | 10 µM | 4 µM | 15 µM | 15 µM | > 25 µM | 15 µM | 5 µM | IC50 [15, 16]: < 20 µM |
| O=C(Nc1nc2ccc([N+](=O)[O-])cc2s1)Nc1ccccc1Cl [C28] | 10 µM | 8 µM | 10 µM | 10 µM | 5 µM | 10 µM | 7 µM | 5 µM | 5 µM | 7 µM | 5 µM | 7 µM | IC50 [15, 16]: < 20 µM |
| O=C(Nc1cccc(Cl)c1)Nc1cccc(Cl)c1 [C9] | 20 µM | 15 µM | > 25 µM | > 25 µM | 15 µM | 20 µM | 10 µM | > 25 µM | 10 µM | 15 µM | 10 µM | 12 µM | IC50 [15, 17]: 10 to 20 µM |
| O=C(Nc1ccc(Cl)cc1)Nc1nc2ccccc2[nH]1 [C16] | 20 µM | 20 µM | 22 µM | > 25 µM | 20 µM | 20 µM | 12 µM | > 25 µM | 9 µM | 20 µM | 15 µM | 15 µM | IC50 [15, 16]: < 20 µM |
| CCN(CC)CCNC(=O)c1c(C)[nH]c(/C=C2\C(=O)Nc3ccc(F)cc32)c1C [sunitinib] | – | – | – | – | – | – | – | – | – | – | – | – | efficacy on tumor growth, 786-O xenograft [1]: equivalent efficacy |
| O=C(Nc1ccccc1Cl)Nc1ccc(Cl)cc1Cl [C4] | > 25 µM | > 25 µM | > 25 µM | > 25 µM | > 25 µM | > 25 µM | > 25 µM | > 25 µM | > 25 µM | > 25 µM | > 25 µM | > 25 µM | – |
| O=C(Nc1ccc(Cl)cc1)Nc1ccccc1O [C12] | 15 µM | 12 µM | 25 µM | > 25 µM | 15 µM | 15 µM | 25 µM | > 25 µM | 10 µM | 15 µM | 10 µM | 12 µM | IC50 [15, 17]: 10 to 20 µM |
| CCOc1ccc2nc(NC(=O)Nc3ccc(C)cc3)sc2c1 [C32] | > 25 µM | > 25 µM | > 25 µM | > 25 µM | > 25 µM | > 25 µM | > 25 µM | > 25 µM | > 25 µM | > 25 µM | > 25 µM | > 25 µM | – |

Second part, led by results:

| IC50 ([3]; Homo sapiens, OCI-AML2, 48 h) | IC50 ([4]; Homo sapiens) | IC50 ([5]; Homo sapiens, OCI-AML-3, 48 h) | IC50 ([6]; Homo sapiens, SKM-1, 48 h) | IC50 ([7]; Homo sapiens, 786-0) | IC50 ([9]; Homo sapiens, MOLM-14, 48 h) | IC50 ([10]; Homo sapiens, K562, 48 h) | IC50 ([13]; Homo sapiens, MOLM-13, 48 h) | SMILES | IC50 ([8]; Homo sapiens, A498) | IC50 ([11]; Homo sapiens, RCC4, 48 h) | IC50 ([12]; Homo sapiens, CAL-33) | IC50 ([14]; Homo sapiens, CAL-27) | other results |
| --- | --- | --- | --- | --- | --- | --- | --- | --- | --- | --- | --- | --- | --- |
| > 25 µM | > 25 µM | > 25 µM | > 25 µM | > 25 µM | > 25 µM | > 25 µM | > 25 µM | O=C(Nc1ccccc1)Nc1nc2ccccc2o1 [C18] | > 25 µM | > 25 µM | > 25 µM | > 25 µM | anti-proliferation/survival activity on malignant cells [15]: did not give anti-proliferation/survival activity |
| > 25 µM | > 25 µM | 10 µM | 25 µM | 15 µM | 10 µM | 25 µM | 15 µM | Cc1ccc2nc(NC(=O)Nc3ccccc3Cl)sc2c1 [C25] | 15 µM | > 25 µM | 10 µM | 5 µM | IC50 [15, 16]: < 20 µM |
| > 25 µM | > 25 µM | > 25 µM | > 25 µM | > 25 µM | > 25 µM | > 25 µM | > 25 µM | S=C(Nc1ccccc1)Nc1nc2ccccc2o1 [C19] | > 25 µM | > 25 µM | > 25 µM | > 25 µM | anti-proliferation/survival activity on malignant cells [15]: did not give anti-proliferation/survival activity |
| > 25 µM | > 25 µM | > 25 µM | > 25 µM | > 25 µM | > 25 µM | > 25 µM | > 25 µM | O=C(Nc1ccccc1)Nc1nc2ccccc2s1 [C20] | > 25 µM | > 25 µM | > 25 µM | > 25 µM | – |
